The values below come from ChEMBL document CHEMBL1201862, “PubChem BioAssay data set” (2004).

What is called GI50 is the concentration that inhibits growth by half.

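How tested: cells in 96-well plates exposed to compound for 48 hours at five concentrations. The concentration for 50% growth inhibition is given as GI50.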 Activity calls are given as the source filed them. No stated cut-off is given here; in the data, active = GI50 up to about 1.1 µM and inactive = higher.

Test systems include T47D; BT-549; 786-0; HCT-15; NCI-H226; IGROV-1; HT-29; HOP-92; NCI-H460; MOLT-4; U-251; UO-31; RPMI-8226; Hs-578T; A498; SNB-75; KM12; UACC-62; HCT-116; DU-145.
What all share (test): DTP human tumour cell line panel, 48 h

Consider `COC(=O)C(C(=O)C(=O)Nc1c(C)cccc1C(C)(C)C)c1nc2ccc(Cl)cc2nc1O` (centres undefined), for which the GI50 in the assay with T47D is > 100 µM (inactive); in the assay with BT-549 it was > 100 µM (inactive); in the assay with 786-0, > 100 µM (inactive); in the assay on HCT-15 it was over 100 µM; in the assay with NCI-H226, > 100 µM (inactive); in the assay on IGROV-1 it was 25.8 µM (inactive). Also, the GI50 with HT-29, with HOP-92, with NCI-H460, in the assay with MOLT-4, in the assay on U-251 and with UO-31 was > 100 µM (inactive) throughout. Besides, the GI50 with RPMI-8226, in the assay with Hs-578T, in the assay on A498, in the assay with SNB-75, in the assay with KM12 and in the assay with UACC-62 was > 100 µM (inactive) in each case. In addition, the GI50 in the assay on HCT-116 was > 100 µM (inactive).

As for `COc1ccccc1Nc1nc(NNC(=O)Cc2ccccc2)nc(NNC(=O)c2ccncc2)n1`, the GI50 in the assay on T47D was > 10 µM (inactive); in the assay with BT-549 it was > 10 µM (inactive); in the assay on 786-0, > 10 µM (inactive); with HCT-15, over 10 µM; in the assay on IGROV-1 it was > 10 µM (inactive); in the assay on HT-29, > 10 µM (inactive). Moreover, the GI50 with HOP-92 is > 10 µM (inactive); in the assay with NCI-H460, > 10 µM (inactive); in the assay on MOLT-4, > 10 µM (inactive); in the assay on U-251, > 10 µM (inactive); in the assay on RPMI-8226, > 10 µM (inactive); in the assay with Hs-578T, 9.04 µM (inactive). Also, the GI50 in the assay on SNB-75, in the assay with KM12, with UACC-62 and in the assay on DU-145 was > 10 µM (inactive) each time.

On to `O=C1/C(=C/c2ccc(Cl)cc2)Oc2ccccc21`, for which the GI50 was 27.4 µM (inactive) in the assay with T47D; 25.6 µM (inactive) in the assay with BT-549; 15.7 µM (inactive) with 786-0; 66.7 µM with HCT-15; 38.1 µM (inactive) in the assay with NCI-H226; > 10 µM (inactive) with IGROV-1. Further, the GI50 in the assay with HT-29 is > 100 µM (inactive); in the assay with NCI-H460, 26.4 µM (inactive); in the assay on MOLT-4, 55.6 µM (inactive); in the assay with U-251, 36.3 µM (inactive); with UO-31 it was 16.8 µM (inactive); with RPMI-8226, 58.2 µM (inactive). For the same molecule, the GI50 was 18.7 µM (inactive) in the assay with Hs-578T; 32.7 µM (inactive) with SNB-75; 32.4 µM (inactive) in the assay on KM12; 58.6 µM (inactive) in the assay on UACC-62; 19.7 µM (inactive) in the assay on DU-145; 59.4 µM (inactive) with HCT-116.

Consider `O=C(O)Cc1cccc2c1OC(c1ccccc1)C(Cl)(C(=O)c1ccccc1)C2=O` (centres undefined), for which the GI50 was 16.9 µM (inactive) in the assay with T47D; 43 µM (inactive) with BT-549; 12.9 µM (inactive) in the assay with 786-0; 14.4 µM with HCT-15; 30.1 µM (inactive) with NCI-H226; 15.6 µM (inactive) in the assay with IGROV-1. For the same molecule, the GI50 is 16.4 µM (inactive) with HT-29; 19.9 µM (inactive) in the assay with NCI-H460; 22.4 µM (inactive) in the assay with MOLT-4; 17.2 µM (inactive) with U-251; 17.4 µM (inactive) in the assay with UO-31; 17.4 µM (inactive) in the assay with RPMI-8226. Further, the GI50 in the assay on Hs-578T is 35 µM (inactive); in the assay on SNB-75 it was 19.1 µM (inactive); with KM12, 18.5 µM (inactive); with DU-145 it was 24.4 µM (inactive); with HCT-116, 15.1 µM (inactive).

For the molecule `O=C(CNC(=O)c1ccccc1)Oc1c(Cl)c(Cl)c(Cl)c(Cl)c1Cl`, the GI50 was 42.6 µM (inactive) with T47D; 20.5 µM (inactive) with BT-549; 50.5 µM (inactive) in the assay with 786-0; 30.6 µM in the assay with HCT-15; 29 µM (inactive) with NCI-H226; 27.8 µM (inactive) in the assay with IGROV-1. For the same molecule, the GI50 was 30.5 µM (inactive) with HT-29; 38.5 µM (inactive) in the assay on NCI-H460; 29 µM (inactive) in the assay with MOLT-4; 26.7 µM (inactive) in the assay on U-251; 22 µM (inactive) with UO-31; 38.7 µM (inactive) with RPMI-8226. The GI50 is 24.9 µM (inactive) with Hs-578T; 45.5 µM (inactive) in the assay on SNB-75; 22.4 µM (inactive) with KM12; 21.9 µM (inactive) in the assay with UACC-62; 23.4 µM (inactive) in the assay on DU-145; 56.4 µM (inactive) in the assay on HCT-116.

Take `C=C1C(=O)O[C@H]2C[C@@]3(COC(C)=O)C=COC=C(COC(=O)C(C)C)C3CC12` (some centres undefined): the GI50 in the assay with BT-549 was > 100 µM (inactive); with 786-0, > 100 µM (inactive); in the assay on HCT-15 it was over 100 µM; with NCI-H226, > 100 µM (inactive); with IGROV-1, > 100 µM (inactive); with HT-29 it was > 100 µM (inactive). Besides, the GI50 in the assay on NCI-H460 is > 100 µM (inactive); in the assay on MOLT-4, 28.4 µM (inactive); with U-251, 29.4 µM (inactive); in the assay on UO-31, > 100 µM (inactive); with RPMI-8226 it was 21.5 µM (inactive); in the assay on Hs-578T it was > 100 µM (inactive). Also, the GI50 with SNB-75 was 12.2 µM (inactive); with KM12, > 100 µM (inactive); in the assay with UACC-62 it was 13.2 µM (inactive); in the assay with DU-145, > 100 µM (inactive); in the assay with HCT-116, 37.5 µM (inactive).

As to `COc1ccc(/C=C2/SC(c3ccc(Cl)cc3)N(NC(=O)CCCCCCCCC(=O)NN3C(=O)/C(=C\c4ccc(OC)c(OC)c4)SC3c3ccc(Cl)cc3)C2=O)cc1OC` (centres undefined), the GI50 in the assay with T47D was > 100 µM (inactive); with BT-549, > 100 µM (inactive); in the assay with 786-0 it was 24.4 µM (inactive); with HCT-15 it was over 100 µM; in the assay with NCI-H226, > 100 µM (inactive); in the assay with IGROV-1, 12.9 µM (inactive). In addition, the GI50 in the assay on HT-29 was > 100 µM (inactive); with HOP-92, 18.8 µM (inactive); in the assay with NCI-H460 it was 61 µM (inactive); in the assay with MOLT-4, 47.5 µM (inactive); with U-251, > 100 µM (inactive); in the assay with UO-31 it was 27.7 µM (inactive). In addition, the GI50 was > 100 µM (inactive) in the assay on RPMI-8226; 24.4 µM (inactive) in the assay on A498; > 100 µM (inactive) in the assay with SNB-75; 55.3 µM (inactive) in the assay with KM12; 29.3 µM (inactive) in the assay on UACC-62; > 100 µM (inactive) in the assay on DU-145. Moreover, the GI50 with HCT-116 was 30.6 µM (inactive).

Turning to `O=C(N/N=C\c1ccc2ccccc2c1)Nc1ccc([N+](=O)[O-])cc1`, the GI50 in the assay with T47D was 17.9 µM (inactive); in the assay on BT-549, 24.3 µM (inactive); in the assay with 786-0 it was 24 µM (inactive); with HCT-15, 16.8 µM; in the assay on NCI-H226, 29.4 µM (inactive); in the assay on IGROV-1, 29.7 µM (inactive). Also, the GI50 in the assay with HT-29 was 21.3 µM (inactive); with HOP-92, 17.5 µM (inactive); in the assay with NCI-H460, 24.4 µM (inactive); in the assay on MOLT-4 it was 20 µM (inactive); in the assay on U-251 it was 29.3 µM (inactive); with UO-31, 23.2 µM (inactive). The GI50 in the assay with RPMI-8226 was 15.1 µM (inactive); with Hs-578T, 32.9 µM (inactive); with SNB-75, 42.4 µM (inactive); in the assay on KM12, 33.4 µM (inactive); in the assay with UACC-62, 24.7 µM (inactive); in the assay with DU-145, 23.7 µM (inactive). Further, the GI50 with HCT-116 is 21.1 µM (inactive).

Regarding `Cc1cc(S(=O)(=O)Nc2nc(N)nc(N(C)C)n2)c(SCC(=O)O)cc1Cl`, the GI50 was > 10 µM (inactive) in the assay with T47D; > 10 µM (inactive) in the assay with BT-549; > 10 µM (inactive) in the assay with 786-0; over 10 µM in the assay on HCT-15; > 10 µM (inactive) with NCI-H226; > 10 µM (inactive) with IGROV-1. The GI50 with HT-29, with HOP-92, in the assay on NCI-H460, in the assay on MOLT-4, with U-251 and in the assay with UO-31 was > 10 µM (inactive) in each case. In addition, the GI50 in the assay with RPMI-8226, in the assay with A498, in the assay on SNB-75, in the assay with KM12, in the assay with DU-145 and in the assay on HCT-116 was > 10 µM (inactive) throughout.

As for `COc1ccc(-c2cc(O)c3cc(OC)c(OC)cc3n2)cc1OC`, the GI50 with BT-549 was > 100 µM (inactive); with 786-0, > 100 µM (inactive); in the assay on HCT-15, over 100 µM; with NCI-H226 it was > 100 µM (inactive); in the assay on IGROV-1, > 100 µM (inactive); in the assay with HT-29, > 100 µM (inactive). For the same molecule, the GI50 in the assay on HOP-92 is 64.4 µM (inactive); in the assay with NCI-H460 it was > 100 µM (inactive); with MOLT-4 it was > 100 µM (inactive); in the assay on U-251 it was > 100 µM (inactive); in the assay on UO-31, > 100 µM (inactive); with RPMI-8226, > 100 µM (inactive). Moreover, the GI50 in the assay on Hs-578T was 69.8 µM (inactive); in the assay with A498, > 100 µM (inactive); with SNB-75, 37.2 µM (inactive); with KM12, > 100 µM (inactive); in the assay on UACC-62 it was > 100 µM (inactive); in the assay with DU-145, > 100 µM (inactive). The GI50 with HCT-116 is > 100 µM (inactive).

Consider `CC(=O)O[C@H]1[C@@H](N2CCN(C)CC2)C[C@H]2[C@@H]3CC=C4C[C@@H](N5CCCC5)CC[C@]4(C)[C@H]3CC[C@@]21C`, for which the GI50 was > 100 µM (inactive) with T47D; > 100 µM (inactive) in the assay with BT-549; 25.8 µM (inactive) in the assay with 786-0; 26.1 µM in the assay on HCT-15; > 100 µM (inactive) with NCI-H226; 68.4 µM (inactive) in the assay with IGROV-1. Besides, the GI50 was 4.14 µM (inactive) in the assay on HT-29; > 100 µM (inactive) in the assay on HOP-92; 60.5 µM (inactive) in the assay with NCI-H460; 15.6 µM (inactive) in the assay with MOLT-4; 50 µM (inactive) in the assay with U-251; 34.9 µM (inactive) in the assay on UO-31. The GI50 was 19.2 µM (inactive) in the assay on RPMI-8226; > 100 µM (inactive) with Hs-578T; > 100 µM (inactive) in the assay on A498; > 100 µM (inactive) in the assay on SNB-75; 22.4 µM (inactive) in the assay with KM12; 59.4 µM (inactive) with UACC-62. For the same molecule, the GI50 in the assay with HCT-116 is 16.9 µM (inactive).
